Source: the supplement of paper PMC10933113
Structures can show the parent of a compound that is named as a salt. ± gives the uncertainty stated by the source.

Columns and labels:
[1] = system: THP-1; assay: AC50 of IL-8 secretion induction; higher = less potent; conditions: exposure time: 18 h
[2] = system: THP-1; assay: efficacy of IL-8 induction relative to DMSO (% activity); higher = stronger induction; conditions: exposure time: 18 h
[3] = system: lysine peptide Ac-RFAAKAA-COOH; assay: efficacy of lysine peptide change (negative = depletion) (% activity); higher = less depletion; conditions: incubation time: 24 h
[4] = system: KeratinoSens (HaCaT ARE-luciferase) cells; assay: efficacy of ARE luciferase induction relative to DMSO (% activity over DMSO); higher = stronger induction; conditions: exposure time: 24 h
[5] = system: KeratinoSens (HaCaT ARE-luciferase) cells; assay: cytotoxicity AC50 (CellTiter-Fluor viability); higher = less cytotoxic; conditions: exposure time: 24 h
[6] = system: KeratinoSens (HaCaT ARE-luciferase) cells; assay: AC50 of Nrf2/ARE luciferase induction; higher = less potent; conditions: exposure time: 24 h
[7] = system: cysteine peptide Ac-RFAACAA-COOH; assay: efficacy of cysteine peptide change (negative = depletion) (% activity); higher = less depletion; conditions: incubation time: 24 h
[8] = system: cysteine peptide Ac-RFAACAA-COOH; assay: AC50 of cysteine peptide concentration-response (direction given by sign of efficacy); higher = less potent; conditions: incubation time: 24 h

Structure (SMILES)	AC50 of IL-8 secretion induction [1]	efficacy of IL-8 induction [2]	efficacy of lysine peptide change [3]	efficacy of ARE luciferase induction [4]	cytotoxicity AC50 [5]	AC50 of Nrf2/ARE luciferase induction [6]	efficacy of cysteine peptide change [7]	AC50 [8]
C[C@@H]1O[C@@H](O[C@H]2C[C@@H](O)[C@]3(CO)[C@H]4[C@H](O)C[C@]5(C)[C@@H](C6=CC(=O)OC6)CC[C@]5(O)[C@@H]4CC[C@]3(O)C2)[C@H](O)[C@H](O)[C@H]1O [Ouabain]	2.99 µM	35.4 ± 9.9	6.65 ± 12	220 ± 65	1.58 µM	0.96 µM	3.17 ± 11	
CCC1OCC(COc2ccc(Oc3ccccc3)cc2)O1 (stereo unspecified) [Diofenolan]	34.2 µM	113 ± 5.8	0.82 ± 8.5	138 ± 84	24.4 ± 4.2 µM	13.7 µM	8.44 ± 17	
CCS(=O)(=O)CCSP(=O)(OC)OC [Demeton-S-methylsulphon]	30.7 µM	108 ± 5.1	-8 ± 20	28.1 ± 59	22.5 ± 2.6 µM	19 µM	-43.5 ± 12	
c1cc(N(CC2CO2)CC2CO2)ccc1OCC1CO1 (stereo unspecified) [4-(Diglycidylamino)phenyl glycidyl ether]	76.9 µM	62.3 ± 18	41.8 ± 1.5	103 ± 58	63.9 ± 12 µM	32.9 µM	-36.5 ± 12	20.3 ± 16 µM
O=c1n(CC2CO2)c(=O)n(CC2CO2)c(=O)n1CC1CO1 (stereo unspecified) [Triglycidyl isocyanurate]	36.9 µM	157 ± 24	35 ± 20	90.3 ± 20	28.3 ± 3.2 µM	14.1 µM	-3.96 ± 6.9	
CC(C)CC(C)Nc1ccc(Nc2ccccc2)cc1 (stereo unspecified) [N-(1,3-Dimethylbutyl)-N'-phenyl-p-phenylenediamine]	32.9 µM	29.6 ± 1.7	2.97 ± 5.1	148 ± 100	38.5 ± 5.3 µM	26.4 µM	-77.3 ± 10	0.88 ± 0.99 µM
CC(O)C#CC(C)O (stereo unspecified) [Hex-3-yne-2,5-diol]	41.4 µM	62.2 ± 17	-5.13 ± 15	-35.2 ± 7.1	32.9 ± 2.2 µM		-101 ± 4.2	4.16 ± 0.53 µM
CC(C)(C)c1cc(O)ccc1O [tert-Butylhydroquinone]	39.8 µM	114 ± 90	-30.8 ± 9.1	293 ± 55		33 µM	-112 ± 5.2	34.8 ± 13 µM
Oc1c(I)cc(Cl)c2cccnc12 [Clioquinol]	21.6 µM	125 ± 14	-8.28 ± 7.3	87.3 ± 32	10.4 ± 1.3 µM	6.33 µM	-68.8 ± 8.1	1.52 ± 0.89 µM
c1cc(N(CC2CO2)CC2CO2)ccc1Cc1ccc(N(CC2CO2)CC2CO2)cc1 (stereo unspecified) [4,4'-Methylenebis(N,N-diglycidylaniline)]	37.1 µM	103 ± 16		57 ± 38	35.5 µM	15.8 µM		
Cn1sccc1=O [2-Methyl-4-isothiazolin-3-one hydrochloride]	35.9 µM	50.4 ± 5.3	-0.97 ± 8.8	118 ± 32	25.2 ± 2.9 µM	13.7 µM	-98.5 ± 3.1	2.42 ± 0.16 µM
CN(C)c1ccc(N(C)C)cc1 [*N,N,N',N'-Tetramethyl-p-phenylenediamine]	76.5 µM	130 ± 7.7	-28.7 ± 13	98.6 ± 34	57 ± 12 µM	20.9 µM	-93.1 ± 3.4	3.26 ± 0.91 µM
Nc1ncn([C@@H]2O[C@H](CO)[C@@H](O)[C@H]2O)c(=O)n1 [5-Azacytidine]	41.6 µM	55 ± 5.8	6.9 ± 7.1	275 ± 140	17.8 ± 6.3 µM	18.9 µM	4.3 ± 7.4	
O=C1c2ccccc2C(=O)C1c1ccc2ccccc2n1 [D & C Yellow II]	38.4 µM	71.4 ± 9.3	-13.8 ± 13	68.8 ± 34	28.2 µM	11.6 µM	-22.9 ± 5.9	
CCCCc1ccc2[nH]c(NC(=O)OC)nc2c1 [Parbendazole*]	38.4 µM	77.1 ± 5.2	56 ± 8.1	66.8 ± 26	5.79 ± 1.6 µM	21.1 µM	-4.47 ± 11	
CC(C)=CCC1C(=O)N(c2ccccc2)N(c2ccccc2)C1=O [Feprazone]	85.9 µM	60.5 ± 9.2	0	281 ± 320	40 ± 4.6 µM	46 µM	-88.7 ± 16	
c1coc(-c2nc3ccccc3[nH]2)c1 [Fuberidazole]	48.3 µM	78.3 ± 0.93	-20.8 ± 15	96.2 ± 26	38.7 ± 6.6 µM	32 µM	-100 ± 9.1	12.3 ± 4.7 µM
CCCCCCCCn1sc(Cl)c(Cl)c1=O [4,5-Dichloro-2-octyl-3(2H)-isothiazolone]	11.7 µM	50.1 ± 4.7	-94.5 ± 3.8	-41.3 ± 5.3	12.1 ± 0.79 µM		-98.9 ± 3.5	0.88 ± 0.21 µM
S=C=NCc1ccccc1 [BENZYL ISOTHIOCYANATE]	11.4 µM	40.8 ± 25	19.8 ± 9.3	278 ± 170		24.8 µM	-57.9 ± 6.4	34.2 ± 2.2 µM
COc1cc(/C=C2\CCC/C(=C\c3ccc(O)c(OC)c3)C2=O)ccc1O [Cyclovalone]	40 µM	44.5 ± 6.9	15.9 ± 15	242 ± 83	22.5 ± 2.6 µM	15.8 µM	-50.1 ± 12	0.87 ± 0.35 µM
Sc1nc2ccccc2s1 [2-Mercaptobenzothiazole]	28.3 µM	21.3 ± 41	40.3 ± 17	87.1 ± 23		20.7 µM	-86.4 ± 10	32.9 ± 2.2 µM
c1csc(SSc2cccs2)c1 [2-Thienyl disulfide]	82.7 µM	81.3 ± 8.7	-11.6 ± 10	126 ± 80	41.4 ± 2.8 µM	33.5 µM	-94.7 ± 2.8	1.04 ± 0.07 µM
N=C(N)NN=C(/C=C/c1ccc([N+](=O)[O-])o1)/C=C/c1ccc([N+](=O)[O-])o1 [Nitrovin]	11.6 µM	63.3 ± 30	-31.7 ± 10	46.8 ± 140	6.97 ± 1.7 µM		-105 ± 8.6	5.39 ± 1.6 µM
CC(C)OC(=S)S [Proxan-sodium]	35.9 µM	59.9 ± 7.8	10.8 ± 20	59.5 ± 100	37.3 ± 6.7 µM		-94.2 ± 20	73.6 ± 37 µM
Nc1ccc2cc3ccc(N)cc3nc2c1 [Proflavin hemisulfate#]	35.5 µM	68 ± 3.1	115 ± 4.9	390 ± 270		7.94 µM	88.8 ± 300	11.9 ± 20 µM
